Publication PMC9602571, “Discovery of a Dual SENP1 and SENP2 Inhibitor” (International Journal of Molecular Sciences, 2022)
pIC50, pKi: −log10 of the molar value. Where two headings read alike, the source gives them in different places.

Experiments:
Type in all cases: biochemical
SENP1 [1] = molecular target: T1, SENP1 (Homo sapiens, UniProt Q9P0U3); experiment: Fluorogenic SENP1 assay, SUMO2-AMC substrate; conditions: n = 2
T1 construct: Human recombinant, His6-SENP1 Catalytic Domain; His6 (N); purchased Boston Biochem (Bio-Techne AG) E-700
T1 sequence (Q9P0U3 450-613 limits assumed): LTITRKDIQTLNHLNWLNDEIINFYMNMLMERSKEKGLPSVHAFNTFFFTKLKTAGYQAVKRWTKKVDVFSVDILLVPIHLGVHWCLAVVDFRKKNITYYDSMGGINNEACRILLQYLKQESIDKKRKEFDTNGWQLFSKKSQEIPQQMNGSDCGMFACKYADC
Description: (§1) Human recombinant, His6-SENP1 Catalytic Domain (Boston Biochem Cat# E-700, Bio-Techne AG, Zug, Switzerland) was prepared in reaction buffer (50 mM HEPES, 150 mM NaCl, 0.5 mM EDTA, 1 mM DTT, pH 7.5, 0.01% CHAPS). To this solution, a 20 mM or 50 mM inhibitor stock solution in DMSO was added and the mixture was incubated for 15 min at ambient temperature. […] The data were analyzed by taking the slope (signal/time) of the linear portion of measurement. The slope was calculated using Excel and the curve fits were performed using GraphPad Prism7 with a four-parameter least-squares fit. The final reaction conditions contained 0.02 nM SENP1 and 300 nM SUMO1/2 or 3-AMC).

UCHL1 = molecular target: T2, UCHL1 (Homo sapiens, UniProt P09936); experiment: UCHL1 activity assay, Ubiquitin-AMC substrate; conditions: n = 2
T2 construct: purchased SignalChem U22-30H
T2 sequence (P09936 1-223): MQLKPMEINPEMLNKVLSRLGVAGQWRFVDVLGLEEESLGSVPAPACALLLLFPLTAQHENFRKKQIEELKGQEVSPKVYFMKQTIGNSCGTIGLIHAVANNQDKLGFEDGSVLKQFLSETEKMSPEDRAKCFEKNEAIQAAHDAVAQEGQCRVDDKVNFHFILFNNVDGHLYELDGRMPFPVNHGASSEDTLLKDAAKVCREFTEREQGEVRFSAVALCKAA
Description: IC50 measurements were conducted at Reaction Biology Corporation, Malvern, PA, USA, with two replications using 10 concentrations starting at 200 μM with three-fold dilution. Curve fits were performed where the enzyme activities at the highest concentration of compounds were less than 65%. UCHL1 II was used as a control inhibitor. The procedure was performed analogous to the fluorogenic SENP2 assay described in 3.3.2. using the UCHL1 enzyme (SignalChem Cat# U22-30H) and Ubiquitin-AMC substrate (Enzo Cat# BML-SE211-0025). The final reaction conditions contained 0.2 nM UCHL1 and 100 nM Ubiquitin-AMC.

SENP1 [2] = molecular target: T1, SENP1; experiment: Fluorogenic SENP1 assay, SUMO1-AMC substrate
Description: as §1, with “The” for “The data were analyzed by taking the slope (signal/time) of the linear portion of measurement. The”

SENP1 [3] = molecular target: T1, SENP1; experiment: Mode of inhibition study, SENP1 and SUMO1-AMC kinetic measurement
Description: A mode of inhibition study with 11 was performed by kinetic measurement with SENP1 and SUMO1-AMC employing five different substrate concentrations (Figure 4). The IC50 values […] slightly by lowering the SUMO1-AMC substrate concentration from 1000 nM to 62.5 nM, indicating a slight binding preference to the SUMO1-SENP1 complex (Figure 4A).
IC50 measurements were performed with at least two replications using eight concentrations starting at 200 μM and for the fragments at 500 μM with three-fold dilution. Human recombinant, His6-SENP1 Catalytic Domain (Boston Biochem Cat# E-700, Bio-Techne AG, Zug, Switzerland) was prepared in reaction buffer (50 mM HEPES, 150 mM NaCl, 0.5 mM EDTA, 1 mM DTT, pH 7.5, 0.01% CHAPS). To this solution, a 20 mM or 50 mM inhibitor stock solution in DMSO was added and the mixture was incubated for 15 min at ambient temperature. The substrate SUMO1/2 or 3-AMC (SUMO1-AMC; Boston Biochem Cat# UL-551; SUMO2-AMC; Boston Biochem Cat# UL-758; SUMO3-AMC; Boston Biochem Cat# UL-768; Bio-Techne AG, Zug, Switzerland) was delivered to a 96 well-plate to initiate the reaction. The enzyme activities were monitored (Ex/Em = 355/460 nm) as a time-course measurement of the increase in fluorescence signal from SUMO1/2 or 3-AMC for 60 min at 25 °C. The data were analyzed by taking the slope (signal/time) of the linear portion of measurement. The slope was calculated using Excel and the curve fits were performed using GraphPad Prism7 with a four-parameter least-squares fit. The final reaction conditions contained 0.02 nM SENP1 and 300 nM SUMO1/2 or 3-AMC).

pIC50 (SENP1 [1]): 4.37
pIC50 (UCHL1): 4.11
pIC50 (SENP1 [2]; SUMO1-AMC 300 nM, 0.02 nM SENP1, interval in parentheses, read-out: IC50 SENP1): 5.07
pIC50 (SENP1 [2]; screening library samples, SUMO1-AMC, read-out: IC50 SENP1 of hit molecules): 5.29
alpha (mixed inhibition model) (SENP1 [3]; global Michaelis-Menten fit): 0.23
pKi (SENP1 [3]; global Michaelis-Menten fit, GraphPad Prism, read-out: KI (mixed inhibition model)): 4.97
pKi (SENP1 [3]; global fit, unit inferred, read-out: Ki (Figure 4B)): 4.98
pIC50 (SENP1 [3]; substrate 62.5 nM, read-out: IC50 at SUMO1-AMC 62.5 nM): 5.18
pIC50 (SENP1 [3]; substrate 125 nM, read-out: IC50 at SUMO1-AMC 125 nM): 5.24
pIC50 (SENP1 [3]; substrate 250 nM, read-out: IC50 at SUMO1-AMC 250 nM): 5.33
pIC50 (SENP1 [3]; substrate 500 nM, read-out: IC50 at SUMO1-AMC 500 nM): 5.39
pIC50 (SENP1 [3]; substrate 1000 nM, read-out: IC50 at SUMO1-AMC 1000 nM): 5.50
Compound: O=C(Cn1nnc(-c2ccccc2)n1)N1c2ccccc2NC(=O)C12CCCC2 [Compound 11, 1′-[2-(5-Phenyl-2H-1,2,3,4-tetrazol-2-yl)acetyl]-3′,4′-dihydro-1′H-spiro[cyclopentane-1,2′-quinoxalin]-3′-one]
